Consider one compound from US8206983B2, “In vitro methods for the induction and maintenance of plant cell lines as single suspension cells with intact cell walls” (Dow AgroSciences, LLC., priority 2006, dated 2012).

The subject of one data set is soybean suspension cells. As to conditions: cited from earlier work.
A further data set concerns maize suspension. The data set can be described thus: Single cell production from chlorophyllous maize cell cultures. It is filed as cell-based. The text has this: The maize photoautotrophi cultures were initiated and maintained in 7 day culture cycles (Jayakumar et. al. 2005). […] The maize suspension units are tightly packed into hard cell aggregates when compared to the dicot cells analyzed.

The subject of another data set is NT1 suspension cells. The data set can be described thus: Effects of colchicine on growth of NT1 suspension cells. As to conditions: 1 mM. It is filed as cell-based, Nicotiana tabacum. From the text: (§1) BY2 suspension-cultured cells were obtained from Japan tobacco and maintained in LSBY2 medium in a 7 day cycle. Jimsonweed suspension and Pettite Havana tobacco suspensions were initiated from callus initiated at DAS and Xanthi suspensions were procured as a sample from Professor Jack Widholm from UIUC, IL. JT-NT1 suspension cells, obtained from Washington University that are maintained in NT1B medium in 7 day cycle were used only for the pectin degradation enzyme study to separate the cells into single cells. The cells were cultured in shake flasks at 25-28° C. in dark on orbital shakers at 150 rpm. […] The NT-1 cell line is widely used and readily available; though, any tobacco suspension cell line is consistent with the practice of the invention. […]
(§2) Cell expansion and separation were observed by light microscopy (with Nomarski and dark field optics). Spherical cells and single cells were counted by using a hemacytometer to determine the degree of cell expansion and separation, respectively. Cell numbers in aggregates were determined by treating with 5% (wt/vol) chromium trioxide for 16 hr and counting cells (Henshaw et. al, 1966). Cell viability was determined by staining cells (Yokoyama et. al, 1997) with fluorescein diacetate (FDA) and propidium iodide (PI) using a fluorescent microscope (Zeiss Photomicroscope). […]

Another data set has as its system Eragrostis curvula. As to conditions: seeds treated with 0.05% colchicine, tetraploids; cited from earlier work.
Data set [1] has as its system Xanthi tobacco suspension. The data set can be described thus: Single cell induction by colchicine in Xanthi suspension. It is filed as cell-based.
Description: as §1, §2

For `COc1cc2c(c(OC)c1OC)-c1ccc(OC)c(=O)cc1[C@@H](NC(C)=O)CC2` [Colchicine], the viable cells in the data set on soybean suspension cells (1 mM colchicine) is 44.8%. Besides, the “concentration in culture medium for cell separation” value with soybean suspension cells was 0.1 to 1.0 mM. Besides, the “concentration at which active in releasing single cells” value in the data set on maize suspension was “above 0.5 mM”. Moreover, in the data set on NT1 suspension cells, the reduction in growth was about 50%. For the same compound, the polymorphic percentage in the data set with Eragrostis curvula is given as 1.09%. The single cell release result is reported as “partial release of single cells” in data set [1] (0.5 mM, 7 d) and “Separated single cells” in data set [1] (1 mM).
